# From article PMC11014671, “Small molecules that disrupt RAD54-BLM interaction hamper tumor proliferation in colon cancer chemoresistance models” (The Journal of Clinical Investigation, 2024)
# Assays:
# RAD54 = target: T1, RAD54 (Homo sapiens, UniProt Q92698); test: biolayer interferometry (His-RAD54 immobilized); tryptophan fluorescence quenching; assay type: binding
# T1 construct: gene RAD54L; His-RAD54
# T1 sequence (Q92698 1-747): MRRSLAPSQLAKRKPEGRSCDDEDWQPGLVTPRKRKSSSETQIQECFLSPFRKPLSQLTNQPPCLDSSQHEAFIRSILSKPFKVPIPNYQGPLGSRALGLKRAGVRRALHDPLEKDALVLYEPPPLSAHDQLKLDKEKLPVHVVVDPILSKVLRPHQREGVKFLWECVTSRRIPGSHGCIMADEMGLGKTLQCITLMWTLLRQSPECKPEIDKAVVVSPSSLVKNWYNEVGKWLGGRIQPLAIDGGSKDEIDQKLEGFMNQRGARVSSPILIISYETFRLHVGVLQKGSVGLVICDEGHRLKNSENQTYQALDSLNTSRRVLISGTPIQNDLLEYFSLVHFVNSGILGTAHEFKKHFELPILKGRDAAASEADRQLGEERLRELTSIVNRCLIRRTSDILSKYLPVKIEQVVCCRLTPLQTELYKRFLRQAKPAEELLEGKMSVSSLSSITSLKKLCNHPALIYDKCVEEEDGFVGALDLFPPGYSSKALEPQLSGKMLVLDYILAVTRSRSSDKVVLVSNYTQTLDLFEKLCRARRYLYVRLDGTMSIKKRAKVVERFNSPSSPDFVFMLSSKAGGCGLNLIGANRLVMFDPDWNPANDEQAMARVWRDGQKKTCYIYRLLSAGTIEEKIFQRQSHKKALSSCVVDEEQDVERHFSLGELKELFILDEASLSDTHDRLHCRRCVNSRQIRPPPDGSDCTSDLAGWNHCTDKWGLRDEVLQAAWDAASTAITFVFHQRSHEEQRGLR
# [1] = target: His-RAD54 WT (full-length recombinant RAD54) (UniProt Q92698); test: BLI; Octet; His-RAD54 WT immobilized onto Ni-NTA sensor, different concentrations of biotin BLM_peptide
Kd [1] [µM],Molecule,Kd (RAD54) [µM]
,"CC(=O)Nc1nnc(S(N)(=O)=O)s1 [C3, acetazolamide]",55.8
0.0108,biotinylated BLM (aa 181–212) peptide,
